From patent US20070191364A1, “AMINOPIPERIDINE DERIVATIVES, PREPARATION THEREOF AND THERAPEUTIC USE THEREOF” (SANOFI-AVENTIS, priority 2004, published 2007)
Structures can show the parent of a compound that is named as a salt.

How the values were obtained:
human MC3 receptor = target: T1, human MC3 receptor (Homo sapiens, UniProt P41968); test: Functional agonist assay: cAMP formation in CHO(dhfr-) cells; assay type: cell-based; conditions: 1 hour incubation, read-out: EC50 with respect to the MC3 receptor
T1 construct: expressed in transfected cells; host or cells: CHO(dhfr-)
T1 sequence (P41968 whole entry): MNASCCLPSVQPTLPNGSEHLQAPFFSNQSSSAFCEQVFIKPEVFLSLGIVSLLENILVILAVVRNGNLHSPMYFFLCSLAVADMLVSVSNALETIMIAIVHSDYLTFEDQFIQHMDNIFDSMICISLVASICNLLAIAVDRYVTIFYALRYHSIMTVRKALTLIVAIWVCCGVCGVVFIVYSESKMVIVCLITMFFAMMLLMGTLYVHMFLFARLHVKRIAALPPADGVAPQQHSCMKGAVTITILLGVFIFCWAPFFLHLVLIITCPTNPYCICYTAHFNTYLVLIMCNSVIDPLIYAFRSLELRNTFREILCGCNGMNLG
Protocol: (§1) A functional assay is used to differentiate between the agonist activity and the antagonist activity. For this, the formation of cyclic adenosine monophosphate (cAMP) generated by activation of the MC3 receptor or of the MC4 receptor is assayed.
CHO(dhfr-) cells expressing the human MC3 receptor are seeded into MEM Eagle culture medium (Sigma) containing 10% of dialysed calf serum, 1% L-glutamine, 1% sodium pyruvate, 20 mg/500 ml L-proline, 0.3 mg/ml Geneticin and 0.5% PenStrep, these products being provided by Gibco/BR1, except for the dialysed calf serum (Cambrex) and the L-proline (Sigma).
(§2) The compounds to be tested (diluted in 10% DMSO), in an amount of 10 μl at a concentration of 10 times the final concentration, are added to the plates of cells (final volume=100 μl/well). After incubation for 1 hour (37° C., 5% CO2), the amount of cAMP is assayed using Tropix kits (Appelera) according to the supplier's documentation. The intrinsic activity of the compounds is calculated by comparing the stimulation of cAMP by these compounds to the stimulation induced by 30 nM of NDP[…]MSH (maximum of 100%). The EC50 value for the compounds corresponds to the concentration which produces 50% of the maximum stimulation obtained with this compound.

human MC4 receptor [1] = target: T2, human MC4 receptor (Homo sapiens, UniProt P32245); test: Functional agonist assay: cAMP formation in CHO-K1 cells; assay type: cell-based; conditions: 1 hour incubation, read-out: EC50 with respect to the MC4 receptor
T2 construct: host or cells: CHO-K1
T2 sequence (P32245 whole entry): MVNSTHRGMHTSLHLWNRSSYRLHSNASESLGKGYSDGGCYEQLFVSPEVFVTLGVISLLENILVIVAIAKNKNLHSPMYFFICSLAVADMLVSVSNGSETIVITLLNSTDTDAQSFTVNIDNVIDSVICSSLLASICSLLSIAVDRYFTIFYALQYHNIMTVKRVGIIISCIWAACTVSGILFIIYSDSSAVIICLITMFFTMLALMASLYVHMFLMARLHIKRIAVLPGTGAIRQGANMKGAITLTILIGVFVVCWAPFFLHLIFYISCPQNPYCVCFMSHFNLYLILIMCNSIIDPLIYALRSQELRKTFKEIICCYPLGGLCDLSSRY
Protocol: as §1
CHO-K1 cells, expressing the human MC4 receptor at a moderate density (Euroscreen), are seeded into DMEM/Nutrient Mix F12 culture medium (Gibco/BR1) containing 10% of foetal calf serum, 0.5% sodium pyruvate, 1% L-glutamine, 1% non-essential amino acids, 200 mg/l hygromycin B and 0.5% PenStrep, these products being provided by Gibco/BR1, except the calf serum (Biowhittaker) and hygromycin B (Sigma).
as §2

human MC4 receptor [2] = target: T2, human MC4 receptor; test: Affinity assay: displacement of [125I]-[Nle4,D-Phe7]-α-MSH binding to membranes of CHO-K1 cells (SPA); conditions: radioligand displacement, 100 pM [125I]-NDP-α-MSH, 6 h; read-out: IC50 with respect to the MC4 receptor
Protocol: This affinity assay is carried out by measuring the binding of [^125I]-[Nle^4-D-Phe^7]-[…]-MSH to cell membranes. The displacement of this radioligand is used to identify inhibitors of the specific binding to recombinant melanocortin receptors.
For this assay, membranes prepared from CHO-K1 cells expressing the human MC4 receptor at high density (Euroscreen) or membranes, that were purchased (Perkin Elmer Life Sciences, Receptor Biology), of HEK-293 cells expressing hMC3 receptors were used. CHO-K1 cells transfected with the hMC4 receptor gene (Euroscreen) are seeded into DMEM/Nutrient Mix F12 culture medium containing 10% foetal calf serum (Biowhittaker), 1% sodium pyruvate, 1% L-glutamine, 1% non-essential amino acids, 0.4 mg/ml geneticin (G418) and 0.5% PenStrep, these products being provided by Gibco/BR1, except the calf serum. At 80% confluency, the cells are scraped off and the cell pellets are frozen at −80° C. […]
[^125I]-[Nle^4, D-Phe^7]-[…]-MSH is diluted in binding buffer+0.2% BSA. […] The nonspecific binding is defined by NDP-[…]MSH at 10^−7 M. The total binding is measured by the number of counts per minute in the presence of the radioligand alone. […]

EC50 (human MC3 receptor) [nM] | EC50 (human MC4 receptor [1]) [nM] | IC50 (human MC4 receptor [2]) [nM] | melting point [°C] | SMILES
590 | 80 |  |  | CCN(CC)C(=O)N(C1CCCCC1)C1CCN(C(=O)[C@@H](Cc2ccc(Cl)cc2)NC2CCNCC2)CC1 [Compound 1, N-[1-(4-chloro-N-piperidin-4-yl-D-phenylalanyl)piperidin-4-yl]-N-cyclohexyl-N′,N′-diethylurea]
370 | 30 | 300 |  | CCN(CC)C(=O)N(C1CCCCC1)C1CCN(C(=O)[C@@H](Cc2ccc(Cl)cc2)NC2CCC(N)CC2)CC1 (stereo partly drawn) [Compound 2, N-{1-[N-(4-aminocyclohexyl)-4-chloro-D-phenylalanyl]piperidin-4-yl}-N-cyclohexyl-N′,N′-diethylurea hydrochloride]
 |  |  | 195 | CCN(CC)C(=O)N(C1CCCCC1)C1CCN(C(=O)[C@@H](Cc2ccc(Cl)cc2)NC2CCC(N)CC2)CC1 (stereo partly drawn) (as salt: HCl) [Compound 2, N-{1-[N-(4-aminocyclohexyl)-4-chloro-D-phenylalanyl]piperidin-4-yl}-N-cyclohexyl-N′,N′-diethylurea hydrochloride]
 |  |  | > 220 | CCN(CC)C(=O)N(C1CCCCC1)C1CCN(C(=O)[C@@H](Cc2ccc(Cl)cc2)NC2CCNCC2)CC1 (as salt: HCl) [Compound 1, N-[1-(4-chloro-N-piperidin-4-yl-D-phenylalanyl)piperidin-4-yl]-N-cyclohexyl-N′,N′-diethylurea]
